Test results from ChEMBL document CHEMBL4138148, “Discovery of novel pyrrolo-pyridine/pyrimidine derivatives bearing pyridazinone moiety as c-Met kinase inhibitors” (Eur J Med Chem, 2017).
Blank lines part the entries; values can stand above or below the molecule they belong to. Activity calls are given as the source filed them. The rule behind the calls is not given here.

Columns and labels:
HepG2 [1] = assay: Induction of apoptosis in human HepG2 cells assessed as early apoptotic cells at 2.8 uM by Annexin V-FITC/propidium iodide staining based flow cytometry (reference value: 6.11%); type: functional
HepG2 [2] = assay: Induction of apoptosis in human HepG2 cells assessed as viable cells at 2.8 uM by Annexin V-FITC/propidium iodide staining based flow cytometry (reference value: 87.54%); type: functional; conditions: read-out: Activity
HepG2 [3] = assay: Induction of apoptosis in human HepG2 cells assessed as necrotic cells at 2.8 uM by Annexin V-FITC/propidium iodide staining based flow cytometry (reference value: 0.28%); type: functional
HepG2 [4] = assay: Induction of apoptosis in human HepG2 cells assessed as late apoptotic cells at 2.8 uM by Annexin V-FITC/propidium iodide staining based flow cytometry (reference value: 6.07%); type: functional
[5] = molecular target: Hepatocyte growth factor receptor (Homo sapiens, UniProt P08581); assay: Inhibition of c-MET (unknown origin) using FAM-labeled peptide as substrate preincubated for 10 mins followed by substrate addition by mobility shift assay
HepG2 [6] = assay: Induction of apoptosis in human HepG2 cells assessed as early apoptotic cells at 1.3 uM by Annexin V-FITC/propidium iodide staining based flow cytometry (reference value: 6.11%); type: functional
HepG2 [7] = assay: Induction of apoptosis in human HepG2 cells assessed as formation of chromatin condensation at 1.3 uM by acridine orange dye based inverted fluorescence microscopy; type: functional, cell-based
[8] = molecular target: Epidermal growth factor receptor (Homo sapiens, UniProt P00533); assay: Inhibition of EGFR (unknown origin) using FAM-labeled peptide as substrate preincubated for 10 mins followed by substrate addition by mobility shift assay
HepG2 [9] = assay: Induction of apoptosis in human HepG2 cells assessed as necrotic cells at 1.3 uM by Annexin V-FITC/propidium iodide staining based flow cytometry (reference value: 0.28%); type: functional
[10] = molecular target: Vascular endothelial growth factor receptor 2 (Homo sapiens, UniProt P35968); assay: Inhibition of VEGFR2 (unknown origin) using FAM-labeled peptide as substrate preincubated for 10 mins followed by substrate addition by mobility shift assay
HepG2 [11] = conditions: Homo sapiens
Description: (§1) Cytotoxicity against human HepG2 cells assessed as reduction in cell viability after 72 hrs by MTT assay

HepG2 [12] = assay: cells; conditions: Homo sapiens, HepG2, 72 h
Description: as §1

A549 [13] = assay: cells; conditions: Homo sapiens, A549, 72 h
Description: (§2) Cytotoxicity against human A549 cells assessed as reduction in cell viability after 72 hrs by MTT assay

MCF7 [14] = assay: cells; conditions: Homo sapiens, MCF7, 72 h
Description: (§3) Cytotoxicity against human MCF7 cells assessed as reduction in cell viability after 72 hrs by MTT assay

HepG2 [15] = assay: Induction of apoptosis in human HepG2 cells assessed as formation of DNA fragments at 1.3 uM by acridine orange dye based inverted fluorescence microscopy; type: functional, cell-based
HepG2 [16] = assay: Induction of apoptosis in human HepG2 cells assessed as late apoptotic cells at 1.3 uM by Annexin V-FITC/propidium iodide staining based flow cytometry (reference value: 6.07%); type: functional
PC-3 [17] = conditions: Homo sapiens
Description: (§4) Cytotoxicity against human PC3 cells assessed as reduction in cell viability after 72 hrs by MTT assay

A549 [18] = conditions: Homo sapiens
Description: as §2

HepG2 [19] = assay: Induction of apoptosis in human HepG2 cells assessed as viable cells at 1.3 uM by Annexin V-FITC/propidium iodide staining based flow cytometry (reference value: 87.54%); type: functional; conditions: read-out: Activity
[20] = molecular target: Mast/stem cell growth factor receptor Kit (Homo sapiens, UniProt P10721); assay: Inhibition of cKIT (unknown origin) using FAM-labeled peptide as substrate preincubated for 10 mins followed by substrate addition by mobility shift assay
HepG2 [21] = assay: Induction of apoptosis in human HepG2 cells assessed as formation of cell shrinkage at 1.3 uM by acridine orange dye based inverted fluorescence microscopy; type: functional
MCF7 [22] = conditions: Homo sapiens
Description: as §3

PC-3 [23] = assay: cells; conditions: Homo sapiens, PC-3, 72 h
Description: as §4

[24] = molecular target: T1, Receptor-type tyrosine-protein kinase FLT3 (Homo sapiens, UniProt P36888); assay: Inhibition of FLT3 (unknown origin) using FAM-labeled peptide as substrate preincubated for 10 mins followed by substrate addition by mobility shift assay
T1 sequence (P36888 whole entry): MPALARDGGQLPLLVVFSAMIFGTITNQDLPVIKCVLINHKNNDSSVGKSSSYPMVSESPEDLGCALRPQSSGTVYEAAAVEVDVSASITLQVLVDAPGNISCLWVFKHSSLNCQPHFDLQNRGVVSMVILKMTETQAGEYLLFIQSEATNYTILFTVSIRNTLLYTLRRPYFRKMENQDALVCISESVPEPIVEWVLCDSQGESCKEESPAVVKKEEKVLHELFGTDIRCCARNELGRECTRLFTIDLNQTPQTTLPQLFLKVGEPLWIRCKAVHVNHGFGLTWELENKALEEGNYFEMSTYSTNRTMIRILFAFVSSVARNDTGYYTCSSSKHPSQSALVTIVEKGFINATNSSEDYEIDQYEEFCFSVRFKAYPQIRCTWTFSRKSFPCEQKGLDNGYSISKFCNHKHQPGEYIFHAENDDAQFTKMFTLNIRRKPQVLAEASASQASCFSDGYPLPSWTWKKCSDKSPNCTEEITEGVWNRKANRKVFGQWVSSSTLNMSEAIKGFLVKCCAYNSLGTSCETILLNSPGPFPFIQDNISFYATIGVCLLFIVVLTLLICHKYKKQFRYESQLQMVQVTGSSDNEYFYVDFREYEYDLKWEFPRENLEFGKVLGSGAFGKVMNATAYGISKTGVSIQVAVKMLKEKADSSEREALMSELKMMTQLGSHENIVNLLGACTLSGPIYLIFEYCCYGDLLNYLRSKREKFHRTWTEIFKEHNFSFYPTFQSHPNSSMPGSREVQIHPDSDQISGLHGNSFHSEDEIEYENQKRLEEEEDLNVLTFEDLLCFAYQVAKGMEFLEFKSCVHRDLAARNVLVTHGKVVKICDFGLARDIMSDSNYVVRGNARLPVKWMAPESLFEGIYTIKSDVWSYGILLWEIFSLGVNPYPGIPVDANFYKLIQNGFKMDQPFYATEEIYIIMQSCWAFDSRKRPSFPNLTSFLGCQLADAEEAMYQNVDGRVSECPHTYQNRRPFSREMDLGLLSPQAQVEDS

Chain of Mast/stem cell growth factor receptor Kit (P10721 whole entry): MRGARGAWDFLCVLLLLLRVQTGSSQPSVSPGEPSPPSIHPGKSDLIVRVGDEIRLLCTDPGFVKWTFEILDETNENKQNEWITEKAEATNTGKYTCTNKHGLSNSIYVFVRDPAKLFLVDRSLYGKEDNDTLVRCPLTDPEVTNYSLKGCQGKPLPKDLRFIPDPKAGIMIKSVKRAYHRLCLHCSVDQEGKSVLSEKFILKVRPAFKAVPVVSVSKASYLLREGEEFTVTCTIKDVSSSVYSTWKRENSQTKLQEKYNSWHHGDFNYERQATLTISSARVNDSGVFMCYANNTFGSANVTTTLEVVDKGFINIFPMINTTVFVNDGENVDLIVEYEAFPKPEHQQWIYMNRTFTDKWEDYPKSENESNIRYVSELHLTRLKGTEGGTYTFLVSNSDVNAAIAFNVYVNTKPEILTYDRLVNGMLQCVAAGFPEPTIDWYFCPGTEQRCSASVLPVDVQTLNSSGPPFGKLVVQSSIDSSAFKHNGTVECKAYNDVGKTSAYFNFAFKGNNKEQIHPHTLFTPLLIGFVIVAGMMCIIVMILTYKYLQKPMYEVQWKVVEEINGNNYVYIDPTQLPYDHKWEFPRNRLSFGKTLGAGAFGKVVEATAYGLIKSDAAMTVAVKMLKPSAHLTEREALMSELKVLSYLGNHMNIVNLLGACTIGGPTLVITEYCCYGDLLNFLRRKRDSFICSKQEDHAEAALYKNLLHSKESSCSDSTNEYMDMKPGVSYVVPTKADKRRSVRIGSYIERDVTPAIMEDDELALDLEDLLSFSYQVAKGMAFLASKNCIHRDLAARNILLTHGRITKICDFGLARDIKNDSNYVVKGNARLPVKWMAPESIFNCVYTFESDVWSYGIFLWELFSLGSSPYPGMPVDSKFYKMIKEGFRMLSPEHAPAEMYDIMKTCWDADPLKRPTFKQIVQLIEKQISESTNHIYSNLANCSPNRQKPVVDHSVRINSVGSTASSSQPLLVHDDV
Chain of Vascular endothelial growth factor receptor 2 (P35968 whole entry): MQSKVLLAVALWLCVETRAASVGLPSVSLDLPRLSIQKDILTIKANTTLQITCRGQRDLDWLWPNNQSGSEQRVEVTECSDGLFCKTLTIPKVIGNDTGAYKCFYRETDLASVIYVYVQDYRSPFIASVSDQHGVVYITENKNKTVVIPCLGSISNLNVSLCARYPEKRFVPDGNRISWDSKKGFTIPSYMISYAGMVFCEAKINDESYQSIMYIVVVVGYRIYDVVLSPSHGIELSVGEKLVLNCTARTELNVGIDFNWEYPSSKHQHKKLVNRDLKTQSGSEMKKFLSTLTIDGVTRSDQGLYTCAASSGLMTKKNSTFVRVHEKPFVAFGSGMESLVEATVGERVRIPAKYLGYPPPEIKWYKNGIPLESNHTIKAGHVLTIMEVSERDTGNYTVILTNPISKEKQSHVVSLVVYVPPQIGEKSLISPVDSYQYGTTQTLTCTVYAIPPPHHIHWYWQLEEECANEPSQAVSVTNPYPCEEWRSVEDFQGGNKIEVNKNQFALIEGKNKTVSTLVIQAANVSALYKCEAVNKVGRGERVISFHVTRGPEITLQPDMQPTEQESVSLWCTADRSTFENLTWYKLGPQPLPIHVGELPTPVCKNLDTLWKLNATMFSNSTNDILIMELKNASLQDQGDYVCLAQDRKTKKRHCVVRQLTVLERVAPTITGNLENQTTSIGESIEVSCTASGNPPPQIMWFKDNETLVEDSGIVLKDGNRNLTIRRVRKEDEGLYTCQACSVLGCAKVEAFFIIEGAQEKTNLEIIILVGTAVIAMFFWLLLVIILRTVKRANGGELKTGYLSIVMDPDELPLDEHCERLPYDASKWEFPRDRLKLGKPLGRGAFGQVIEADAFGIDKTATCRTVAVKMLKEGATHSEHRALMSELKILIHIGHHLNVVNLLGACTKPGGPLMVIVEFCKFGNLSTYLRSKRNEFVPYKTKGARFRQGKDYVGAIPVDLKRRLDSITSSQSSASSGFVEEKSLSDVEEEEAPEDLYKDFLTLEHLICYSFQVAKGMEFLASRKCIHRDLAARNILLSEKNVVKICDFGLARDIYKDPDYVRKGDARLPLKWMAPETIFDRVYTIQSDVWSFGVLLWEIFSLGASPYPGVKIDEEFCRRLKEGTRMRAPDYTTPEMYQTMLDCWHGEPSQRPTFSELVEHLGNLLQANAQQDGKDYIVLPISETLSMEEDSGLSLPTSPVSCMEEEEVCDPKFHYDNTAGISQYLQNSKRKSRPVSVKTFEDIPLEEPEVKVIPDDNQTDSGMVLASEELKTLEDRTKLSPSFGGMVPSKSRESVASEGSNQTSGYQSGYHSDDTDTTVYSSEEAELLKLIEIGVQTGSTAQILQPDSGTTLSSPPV
Chain of Epidermal growth factor receptor (P00533 whole entry): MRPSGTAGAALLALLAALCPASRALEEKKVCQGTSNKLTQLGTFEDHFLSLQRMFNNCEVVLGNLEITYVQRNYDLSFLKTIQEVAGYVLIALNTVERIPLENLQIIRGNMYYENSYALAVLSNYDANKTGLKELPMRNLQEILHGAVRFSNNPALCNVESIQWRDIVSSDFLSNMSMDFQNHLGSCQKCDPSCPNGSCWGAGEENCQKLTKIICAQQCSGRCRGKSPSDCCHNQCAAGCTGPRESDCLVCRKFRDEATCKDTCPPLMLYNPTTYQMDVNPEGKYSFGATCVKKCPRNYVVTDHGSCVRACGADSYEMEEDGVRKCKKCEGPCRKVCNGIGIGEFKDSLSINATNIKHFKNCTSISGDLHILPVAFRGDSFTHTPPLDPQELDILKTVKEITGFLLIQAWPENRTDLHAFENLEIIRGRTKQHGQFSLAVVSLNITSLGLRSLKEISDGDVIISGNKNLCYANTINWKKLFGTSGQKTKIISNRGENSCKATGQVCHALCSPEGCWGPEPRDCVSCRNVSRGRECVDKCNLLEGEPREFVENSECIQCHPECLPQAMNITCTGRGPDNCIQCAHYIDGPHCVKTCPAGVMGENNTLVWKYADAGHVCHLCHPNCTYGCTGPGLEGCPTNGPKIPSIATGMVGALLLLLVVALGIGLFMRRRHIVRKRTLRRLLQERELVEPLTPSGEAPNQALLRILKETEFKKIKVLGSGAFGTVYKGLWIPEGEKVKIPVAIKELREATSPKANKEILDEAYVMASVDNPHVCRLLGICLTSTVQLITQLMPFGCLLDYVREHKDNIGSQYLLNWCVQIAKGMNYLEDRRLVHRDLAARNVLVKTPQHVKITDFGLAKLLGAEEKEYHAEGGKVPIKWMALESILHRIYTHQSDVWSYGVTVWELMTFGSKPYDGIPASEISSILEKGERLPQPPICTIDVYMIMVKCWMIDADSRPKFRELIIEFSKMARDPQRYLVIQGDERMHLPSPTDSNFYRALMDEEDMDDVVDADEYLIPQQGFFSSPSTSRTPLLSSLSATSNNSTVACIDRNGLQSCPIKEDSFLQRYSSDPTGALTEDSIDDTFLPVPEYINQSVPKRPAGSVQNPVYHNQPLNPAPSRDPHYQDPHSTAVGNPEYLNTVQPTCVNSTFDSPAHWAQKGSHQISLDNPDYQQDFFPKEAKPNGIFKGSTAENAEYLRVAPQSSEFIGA
Chain of Hepatocyte growth factor receptor (P08581 whole entry): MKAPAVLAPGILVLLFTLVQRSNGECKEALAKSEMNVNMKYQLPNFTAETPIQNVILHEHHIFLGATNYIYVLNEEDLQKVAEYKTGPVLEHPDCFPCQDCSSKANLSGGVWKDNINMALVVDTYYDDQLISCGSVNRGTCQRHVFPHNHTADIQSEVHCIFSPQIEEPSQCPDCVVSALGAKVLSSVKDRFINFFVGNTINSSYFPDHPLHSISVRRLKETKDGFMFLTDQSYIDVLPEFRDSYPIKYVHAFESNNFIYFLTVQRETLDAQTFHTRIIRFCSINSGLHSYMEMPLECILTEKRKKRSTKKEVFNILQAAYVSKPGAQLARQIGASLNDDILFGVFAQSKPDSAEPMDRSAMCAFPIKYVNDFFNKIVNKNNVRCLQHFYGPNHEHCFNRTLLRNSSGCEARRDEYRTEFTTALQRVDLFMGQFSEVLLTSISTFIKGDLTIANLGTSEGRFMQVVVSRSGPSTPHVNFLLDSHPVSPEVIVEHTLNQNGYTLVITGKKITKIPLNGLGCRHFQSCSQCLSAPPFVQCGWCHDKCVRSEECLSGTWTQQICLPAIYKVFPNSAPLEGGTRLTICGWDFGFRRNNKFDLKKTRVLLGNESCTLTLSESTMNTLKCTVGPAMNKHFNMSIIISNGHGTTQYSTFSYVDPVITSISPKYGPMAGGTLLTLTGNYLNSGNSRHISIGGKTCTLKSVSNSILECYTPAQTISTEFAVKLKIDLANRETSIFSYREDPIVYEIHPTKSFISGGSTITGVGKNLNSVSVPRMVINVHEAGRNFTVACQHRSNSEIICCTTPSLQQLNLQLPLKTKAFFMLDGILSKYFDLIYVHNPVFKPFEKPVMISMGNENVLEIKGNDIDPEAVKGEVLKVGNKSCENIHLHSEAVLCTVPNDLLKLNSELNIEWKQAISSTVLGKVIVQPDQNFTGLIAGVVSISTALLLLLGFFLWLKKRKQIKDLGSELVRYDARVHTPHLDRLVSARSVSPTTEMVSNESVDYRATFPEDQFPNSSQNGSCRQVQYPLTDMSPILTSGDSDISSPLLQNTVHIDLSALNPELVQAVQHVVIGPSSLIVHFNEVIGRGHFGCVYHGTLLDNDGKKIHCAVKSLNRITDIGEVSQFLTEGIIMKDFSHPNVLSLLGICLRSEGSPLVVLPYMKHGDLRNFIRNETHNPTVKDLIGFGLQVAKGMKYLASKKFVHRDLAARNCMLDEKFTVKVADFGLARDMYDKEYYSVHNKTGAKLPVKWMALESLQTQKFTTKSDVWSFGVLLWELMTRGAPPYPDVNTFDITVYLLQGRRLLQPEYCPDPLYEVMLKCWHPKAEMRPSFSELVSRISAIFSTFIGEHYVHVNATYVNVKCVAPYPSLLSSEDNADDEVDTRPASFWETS

SMILES: COc1cc2c(Oc3ccc(NC(=O)C4(C(=O)Nc5ccc(F)cc5)CC4)cc3F)ccnc2cc1OCCCN1CCOCC1 [FORETINIB]
- Activity (HepG2 [1]): 16.09%
- viability at 2.8 µM (HepG2 [2]): 72.4%
- Activity (HepG2 [3]): 1.25%
- Activity (HepG2 [4]): 10.3%

- IC50 [5]: 73 nM
- IC50 [8]: > 10000 nM
- IC50 [10]: 2400 nM
- IC50 (HepG2 [12]): 1320 nM
- IC50 (A549 [13]): 2190 nM
- IC50 (MCF7 [14]): 6270 nM
- IC50 [20]: 2200 nM
- IC50 (PC-3 [23]): 4630 nM
- IC50 [24]: 770 nM
SMILES: O=C(Nc1ccc(Oc2ccnc3[nH]ccc23)cc1)c1nn(-c2ccc(Cl)c(C(F)(F)F)c2)ccc1=O
- Activity (HepG2 [6]): 23.01%
- Activity (HepG2 [7]): Active
- Activity (HepG2 [9]): 2.31%
- Activity (HepG2 [11]): Dose-dependent effect
- Activity (HepG2 [15]): Active
- Activity (HepG2 [16]): 11.89%
- Activity (PC-3 [17]): Dose-dependent effect
- Activity (A549 [18]): Dose-dependent effect
- viability at 1.3 µM (HepG2 [19]): 62.8%
- Activity (HepG2 [21]): Active
- Activity (MCF7 [22]): Dose-dependent effect
